Tests used:
Format in all cases: in vivo, mouse
DBA/2-mated CBA/J mice = experiment: Fetal resorption in DBA/2-mated CBA/J mice, murine model of spontaneous recurrent miscarriage
Description: Female mice were allowed to mate with previously isolated male mice. The groups in the present experiment comprised 7-20 animals, one group of DBA/2-mated CBA/J mice and two controls (CBA×Balb/c and Balb/c×Balb/c). After mating, the females were checked daily until the presence of a vaginal plug was confirmed (this time point was then defined as day 0.5 of pregnancy). The mice were sacrificed 15 days post-conception. Uteri were dissected and the frequency of fetal resorption was determined as the number of resorptions divided by total number of formed fetuses and resorptions. Resorption sites, resulting from the loss of a previously viable fetus, are easily identifiable by visual inspection.
Mice were mated as described above, and sacrificed on day 8.5 post-conception. Sections of decidual tissue from CBA/J×Balb/c were incubated with an antibody to mouse C3, and followed by rabbit anti-goat IgG conjugated with HRP (horseradish peroxidase) and staining.
This experiment was carried out to investigate if blockade of complement activation would prevent fetal loss in the murine model of miscarriage. In these experiments, DBA/2-mated CBA/J pregnant mice were treated with three different targeted inhibitors of complement activation.
Crry-Ig. Complement receptor 1-related gene/protein y (Crry) inhibits C3 convertase activity. The Crry used in the experiments was Crry-Ig, which is a recombinant soluble form of Crry fused to the hinge, CH2, and CH3 domains of mouse IgG1, prepared as described in Quigg et al., J Immunol 1998;160:4553-4560. Crry-Ig blocks activation of C3 by both the classical and alternative pathways, thereby preventing all complement effector activities. Pregnant DBA/2-mated CBA/J mice were treated with 3 mg Crry-Ig, administered i.p. on days 8, 10 and 12.
Monoclonal anti-C5 mAb. Also tested was an antibody against C5, which prevents the cleavage of C5. […]
To inhibit factor B, mice were injected on days 7 through 13 of pregnancy with mAb1379 (2 mg intraperitoneally) or with murine IgG as a control. Fetal resorption frequency was calculated on day 15 of pregnancy.

[1] = system: pregnant mice treated with aPL-IgG; experiment: aPL antibody-induced pregnancy loss, murine pregnancy model of APS
[2] = system: C3 deposition in decidual tissue; experiment: Immunohistochemistry of deciduas (C3, human IgG, granulocytes); conditions: aPL-IgG treated mice that also received the agent
Text: (§1) Immunohistochemistry. […] Sections were counterstained with hematoxylin.
as §1

[3] = mice given aPL-IgG 10 mg i.p. days 8 and 12 plus the agent

Substance: AcPhe(L-ornithine-Pro-D-cyclohexylalanine-Trp-Arg) [C5aR-AP]
- fetal resorption rate (DBA/2-mated CBA/J mice; DBA/2-mated CBA/J mice, 100 μg i.p. on day 8, sacrificed day 15): about 7%
- fetal loss / pregnancy loss (DBA/2-mated CBA/J mice; DBA/2-mated CBA/J mice, inhibitor i.p. during pregnancy, fetal resorption day 15): prevented fetal loss
- fetuses and resorptions in uterus (DBA/2-mated CBA/J mice; uterus from treated DBA/2-mated CBA/J mouse, day 15): 6 larger fetuses with decidua and no resorptions
- aPL antibody-induced growth restriction [1, 3]: prevented
- aPL antibody-induced pregnancy loss (fetal resorption) [1, 3]: prevented
- frequency of fetal resorption in the absence of aPL antibodies ([1]; mice that received NH-IgG / no aPL antibodies): had no effect
- C3 deposition in decidual tissue [2]: minimal C3 deposition
- neutrophil infiltration / inflammation in deciduas [2]: no evidence of inflammation
